According to US7005437B2, “Substituted aryl and heteroaryl derivatives, the preparation thereof and the use therof as pharmaceutical compositions” (Boehringer Ingelheim Pharma KG, priority 2001, dated 2006):
Where a name gives a salt, the structure may show the parent alone.

Molecular target: T1, human factor Xa (Homo sapiens, UniProt P00742)
T1 construct: released from the colourless chromogenic substrate by human factor Xa; purchased Roche
Assay: Factor Xa inhibition, enzyme-kinetic measurement with chromogenic substrate
Type: biochemical
Settings: chromogenic substrate Chromozym X, pNA release at 405 nm, pH 8.0, 37° C.
Procedure: The compounds of Examples 1 to 45 of the present application were investigated for their effect on the inhibition of factor Xa as follows: Method: Enzyme-kinetic measurement with chromogenic substrate. The quantity of p-nitroaniline (pNA) released from the colourless chromogenic substrate by human factor Xa is determined photometrically at 405 nm. It is proportional to the activity of the enzyme used. The inhibition of the enzyme activity by the test substance (in relation to the solvent control) is determined at various concentrations of test substance and from this the IC50 is calculated, as the concentration which inhibits the factor Xa used by 50%.
Tris(hydroxymethyl)-aminomethane buffer (100 mMol) of and sodium chloride (150 mMol), pH 8.0
Factor Xa (Roche), spec. activity: 10 U/0.5 ml, final concentration: 0.175 U/ml for each reaction mixture
Substrate Chromozym X (Roche), final concentration: 200 μMol/l for each reaction mixture
10 μl of a 23.5-times concentrated starting solution of the test substance or solvent (control), 175 μl of tris(hydroxymethyl)-aminomethane buffer and 25 μl of a 1.65 U/ml Factor Xa working solution are incubated for 10 minutes at 37° C. After the addition of 25 μl of Chromozym X working solution ([…]) the sample is measured in a photometer (SpectraMax 250) at 405 nm for 150 seconds at 37° C.
1. […]

T1 sequence (P00742 235-488 limits assumed): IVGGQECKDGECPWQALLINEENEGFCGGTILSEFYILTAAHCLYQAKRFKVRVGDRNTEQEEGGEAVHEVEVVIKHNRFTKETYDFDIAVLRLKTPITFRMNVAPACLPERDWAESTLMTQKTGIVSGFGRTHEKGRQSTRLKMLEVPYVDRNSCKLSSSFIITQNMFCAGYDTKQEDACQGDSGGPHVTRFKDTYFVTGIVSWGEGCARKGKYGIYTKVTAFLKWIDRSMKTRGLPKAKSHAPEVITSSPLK
T1 sequence (P00742 41-179 partner limits assumed): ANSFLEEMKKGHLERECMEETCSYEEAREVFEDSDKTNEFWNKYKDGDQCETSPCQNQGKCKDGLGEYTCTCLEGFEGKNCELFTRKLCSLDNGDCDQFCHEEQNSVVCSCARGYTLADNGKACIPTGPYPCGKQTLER

Structure (SMILES): Cc1cc(C#CCN(Cc2ccccc2)c2cccc(C(=N)N)c2)ccc1C(=O)N1CC=CC1 [Example 37, 3-{N-benzyl-3-[3-methyl-4-(2,5-dihydropyrrol-1-yl-carbonyl)-phenyl]-propargylamino}-benzamidine-hydrochloride]
- IC50: 4 nM
